# “Also recorded” adds a separate entry of the source.
# Key:
# Type in all cases: cell-based
# [1] = system: androgen receptor (AR); experiment: AR-mediated luciferase reporter assay in MDA-kb2 cells (200 pM DHT)
# Description: FIGS. 19A-19B depict identification of novel FKBP52-specific hit compounds in accordance with an illustrative embodiment. Structure-based drug design methodology and in silico library screening was used to identify 107 molecules targeting the FKBP52 PPIase pocket. Molecules were assessed for the ability to inhibit AR-mediated luciferase expression at a single high concentration (25 μM) in MDA-kb2 cells. […] MDA-kb2 cells were treated with 200 pM DHT with a range of derivative concentrations. Molecules in the low μM range will be tested in GR-, PR- and ER-Mediated luciferase assays in order to assess GR-dependent activity, PR-dependent activity and to test the effects of ER-regulated activity. A detailed evaluation of all candidate molecules will be tested in multiple cellular and animal models of prostate cancer.
# FIGS. 20A-20D depict PC257 (ZINC3424402) which inhibits FKBP52-Specific AR, GR and ER-Mediated Activity in accordance with an illustrative embodiment. […]
# (§1) Referring to FIG. 21, hormone-induced, receptor-dependent luciferase reporter gene expression was assessed in the presence of a range of PC257 concentrations for androgen receptor (AR) and glucocorticoid receptor (GR) in MDAkb2 cells, and for progesterone receptor (PR) and estrogen receptor (ER) in T47D cells. […]
# [2] = system: glucocorticoid receptor (GR); experiment: GR-dependent luciferase reporter assay in MDA-kb2 cells (50 nM DEX); settings: MDAkb2 cells, result in words
# Description: (§2) FIGS. 20A-20D depict PC257 (ZINC3424402) which inhibits FKBP52-Specific AR, GR and ER-Mediated Activity in accordance with an illustrative embodiment. (FIG. 20A) An in silico screen lead to 107 lead molecules for functional screening that lead to an initial hit molecule PC257 (ZINC3424402). (FIG. 20B) MDA-kb2 cells expressing a stably AR- and GR-response luciferase reporter was treated with 200 pM DHT with a range of PC257 (ZINC3424402) concentrations (0, 0.01, 0.1, 1, 10, 25, 50, and 100 uM) for 16-18 hours in order to test for AR-dependent activity. The graphs represent an average of 4 independent receptor mediated luciferase receptor experiments. (FIG. 20C) MDA-kb2 cells expressing a stably AR- and GR-responsive luciferase reporter was treated with 50 nM DEX with a range of PC257 (ZINC3424402) concentrations (0, 0.01, 0.1, 1, 10, 25, 50, and 100 uM) for 16-18 hours in order to test for GR-dependent activity. The graphs represent an average of 4 independent receptor mediated luciferase receptor experiments. […]
# as §1
# [3] = system: progesterone receptor (PR); experiment: PR-dependent luciferase reporter assay in T47D cells; settings: result in words
# Description: Referring to FIG. 21, hormone-induced, receptor-dependent luciferase reporter gene expression was assessed in the presence of a range of PC257 concentrations for androgen receptor (AR) and glucocorticoid receptor (GR) in MDAkb2 cells, and for progesterone receptor (PR) and estrogen receptor (ER) in T47D cells. The IC50 values for AR, GR and PR inhibition are shown.
# [4] = system: estrogen receptor (ER); experiment: ER-regulated luciferase reporter assay in T47D-KBluc cells (10 pM E2); settings: result in words
# Description: as §2, §1
# [5] = system: FKBP52-regulated AR activity; experiment: DHT-induced AR-dependent luciferase reporter with or without exogenous FKBP52 in fkbp52-deficient cells; settings: presence or absence of exogenous FKBP52; fkbp52-deficient 22Rv1, HeLa and mouse embryonic fibroblast cells
# Description: Referring to FIG. 22, dihydrotestosterone (DHT)-induced, androgen receptor-dependent luciferase reporter gene expression was assessed in the presence of a range of PC257 concentrations in the presence or absence of exogenous FKBP52 expression in fkbp52-deficient 22Rv1, HeLa, and mouse embryonic fibroblast cells. The IC50 values are indicated. […] PC257 is anticipated to target the PPIase pocket, a highly conserved enzymatic pocket among the FKBP family of proteins.
# [6] = system: endogenous AR-dependent gene expression; experiment: Hormone-dependent FKBP51 and/or PSA protein levels by Western blot and densitometry; settings: range of PC257 concentrations, normalized to GAPDH
# Description: Referring to FIG. 23, hormone-dependent FKBP51 and/or PSA protein levels were assessed by Western blot and densitometry in the indicated cell lines in the presence of a range of PC257 concentrations. GAPDH was used as a loading control and the densitometry data were normalized to GAPDH.
# [7] = system: AR nuclear translocation; experiment: AR nuclear translocation by fluorescence microscopy in 22Rv1 cells; settings: 22Rv1 prostate cancer cells, 75 μM, in the presence of hormone
# Description: FIG. 24 depicts that PC257 Blocks Androgen-Dependent AR Nuclear Translocation in accordance with an illustrative embodiment.
# Referring to FIG. 24, 22Rv1 prostate cancer cells were treated with or without 75 μM in the presence of hormone and AR and FKBP52 cellular localization was assessed by fluorescence microscopy.
smiles,measurement,setting,value
"Cc1cc(C(=O)COC(=O)Cc2n[nH]c(=O)c3ccccc23)c(C)n1C[C@H]1COc2ccccc2O1 [PC257, [2-[1-[[(3S)-2,3-Dihydro-1,4-benzodioxin-3-yl]methyl]-2,5-dimethylpyrrol-3-yl]-2-oxoethyl] 2-(4-oxo-3H-phthalazin-1-yl)acetate]",IC50,"[1]; MDA-kb2 cell reporter assay, 200 pM DHT, full dose response, read-out: IC50, inhibition of AR activity",2000 nM
same,inhibition of AR activity,"[1]; MDA-kb2 cells, luciferase reporter, result in words",inhibition of AR activity in the low micromolar range; also recorded: specifically abrogates
same,inhibition of GR activity,[2],specifically abrogates
same,inhibition of PR activity,[3],specifically abrogates
same,inhibitory activity on ER,[4],no inhibitory activity
same,preference for FKBP52-regulated AR activity,[5],preferentially targets FKBP52-regulated AR activity with increased potency
same,endogenous AR-dependent gene expression (FKBP51/PSA protein),[6],abrogates endogenous AR-dependent gene expression
same,AR nuclear translocation,[7],significantly inhibits AR nuclear translocation
